Measurements reported in paper PMC10354055, “An optimized Nurr1 agonist provides disease-modifying effects in Parkinson’s disease models” (Nature Communications, 2023).
Where “and” joins values, the source holds several entries; their conditions need not be identical. Equal values may be shown once.

Experiments:
[1] = molecular target: Nurr1-LBD (Homo sapiens, UniProt P43354); test: TR-FRET competition assay with HCQFluo; format: binding; conditions: Fig. 1i; for IC50: competition with HCQFluo
Description: TR-FRET assay was performed in PPI Terbium (Tb) detection buffer (PerkinElmer) and contained 0.2 µM of Nurr1-LBD, 0.5 µM of fluorescence-labeled hydroxy-CQ (HCQFluo; Proimaging) and serial concentrations of CQ, 4A7C-301 or RA (10^−4–10^6 nM). Rabbit anti-Nurr1 antibody (3 nM; prepared in our lab) and anti-rabbit IgG-Tb (1:400; Cisbio, 61PARTAF) were included in the assay solution as a donor complex. Assay solutions were loaded in a 384-well OptiPlate™ (PerkinElmer). After 2 h incubation in the dark at room temperature, the FRET signal was measured by excitation at 340 nm and emission at 520 nm for fluorescein and 495 nm for Tb using a VICTOR Nivo plate reader (PerkinElmer). Data were fit using the non-linear regression program in GraphPad Prism version 8.0.2.

[2] = test system: AAV-αSyn-induced male mice; test: IHC/stereology of TH+ and NeuN+ neurons and TH+ fibers, AAV-αSyn-induced mice; format: in vivo, mouse; conditions: for loss of TH+ and NeuN+ neurons and TH+ fibers (in words): αSynWT-mice
Text: Adeno-associated viruses (AAVs) expressing GFP only or αSyn (wild-type or A53T) were kindly provided by Dr. Yoon Seong Kim from the University of Central Florida. Recombinant AAV vectors were produced using modified pAAV-IRES-hrGFP (Agilent) to express wild-type and mutant human αSyn under control of the CMV promoter. Viral particles (AAV2) were produced at the University of Iowa Viral Vector Core according to standard operating procedures (https://medicine.uiowa.edu/vectorcore/). […] AAV vectors were delivered into the substantia nigra unilaterally by stereotaxic surgery.
Images were acquired using a KEYENCE microscope and quantified as the number or optical density of immunoreactive cells using ImageJ software.
The numbers of TH^+ DA neurons, NeuN^+ neurons, pS129 αSyn^+ cells in the SN and Iba-1^+ microglia in the SN and striatum were stereologically counted in six coronal sections (30 µm thickness) taken every 6th section (180 µm intervals) for each brain. The boundaries of the SN and striatum were delimited at low magnification (4X) to estimate each total area. Immunoreactive cells were counted with images taken at high magnification (×40) by a single blinded investigator. The group mean of the total number of immunoreactive cells from each brain was transformed as percentage of the number in the control group (%). For AAV-αSyn-induced mice, the group mean of the total number of cells in the ipsilateral side was transformed as a percentage of that observed in the contralateral side.

[3] = test system: MPTP-induced male mice; test: Olfactory discrimination test, MPTP-induced PD model mice; format: in vivo, mouse; conditions: for olfaction, olfactory discrimination test (in words): CQ 40, 4A7C-301 5, L-DOPA 50 mg/kg/day, i.p.
Description: MPTP (Sigma-Aldrich) was intraperitoneally (i.p.) injected (30 mg/kg) for 5 days (Day 1-5). […] To test dyskinetic involuntary behavior, an L-DOPA injected group was included, which received 50 mg/kg of L-DOPA and 15 mg/kg of benserazide (Sigma-Aldrich) (i.p.) for 16 days (Day 1–16). All compounds were administered 6 h post-MPTP injection to avoid any effect of compounds on the MPTP metabolism in the brain. Motor and non-motor related behavior tests were performed on the following days as described in Fig. 4a in an assessor- and observer-blinded fashion. Pre-training and baseline setup for motor-related behaviors were performed 3 days prior to the injections. Mice were sacrificed and subjected to immunohistochemistry. Mice were housed at the Animal Care Facilities of McLean Hospital under a 12-h light/12-h dark cycle, ambient temperature and humidity. Animals were handled in accordance with McLean Hospital’s Institutional Animal Care and Use Committee (Protocol #: 2015N000002) and followed National Institutes of Health guidelines.
The olfactory discrimination test was designed based on Prediger et al.. Briefly, mice were placed in a chamber (40 (w) × 20 (d) × 20 (h) cm) segmented with two identical compartments containing fresh sawdust (non-familiar odor) on one side and unchanged sawdust (familiar odor; maintained for 3 days before the test) on the other side. Mice could choose between one or another area by freely passing through an open door, for 5 min. Mice movements were monitored with EthoVision XT version 7.0 (Noldus) and time (s) and distance (cm) traveled in each compartment were recorded and analyzed.

[4] = test system: mouse ventral mesencephalic (VM) primary cells; test: Dopaminergic gene expression, qRT-PCR, primary VM cells with 6-OHDA; format: cell-based; conditions: for dopaminergic gene expression (in words): VM primary cells, decreased by 6-OHDA, CQ 20 µM, 4A7C-301 0.5 µM
Description: Total RNA was extracted using the GeneJET RNA Purification Kit (Thermo Fisher Scientific) and 100 ng of RNA was subjected to cDNA synthesis using Invitrogen Superscript cDNA Synthesis Kit (Invitrogen) according to the manufacturer’s protocol. qRT-PCR was performed using a CFX Connect Real-Time System (Bio-Rad) in a 20 μl volume mixture containing 2X SsoAdvanced Universal SYBR Green Supermix (Bio-Rad), 100 ng/μl of forward and reverse primers, and 1 μl of cDNA sample. Gene expression levels were quantified by the 2^∆∆CT method (Ct of target gene—Ct of glyceraldehyde-3-phosphate dehydrogenase (GAPDH). The following primers were used for qRT-PCR: TH forward: 5′-[…]-3′, reverse: 5′-[…]-3′; DAT forward: 5′-[…]-3′, reverse: 5′-[…]-3′; AADC forward: 5′-[…]-3′, reverse: 5′-[…]-3′; VMAT2 forward: 5′-[…]-3′, reverse: 5′-[…]-3′; c-Ret forward: 5′-[…]-3′, reverse: 5′-[…]-3′; TNFα forward: 5′-[…]-3′; reverse: 5′-[…]-3′; GAPDH, forward 5′-[…]-3′, reverse 5′-[…]-3′.
Briefly, dissected VM brain tissues were collected in ice-cold Dulbecco’s phosphate-buffered saline (DPBS) and then mechanically dissociated using pipettes. Thereafter, dissociated tissues were incubated in 0.05 % Trypsin-EDTA (Invitrogen) for 5 min at 37 °C. The cell suspension was plated onto glass coverslips in 48-well plates pre-coated with […] poly-L-ornithine, 5 μg/ml Fibronectin or 1 μg/ml Laminin at a density of 2.0 × 10^5 cells/cm^2 in differentiation medium (1% heat-inactivated FBS, 2 mM L-glutamine, 50X B27 supplement, 100 μM ascorbic acid and 2 μg/ml bFGF in Neurobasal media).

[5] = Figure 4e, MPTP-induced mice, individual animal values

Nurr1-LBD, sequence (P43354 360-595 limits assumed, species assumed): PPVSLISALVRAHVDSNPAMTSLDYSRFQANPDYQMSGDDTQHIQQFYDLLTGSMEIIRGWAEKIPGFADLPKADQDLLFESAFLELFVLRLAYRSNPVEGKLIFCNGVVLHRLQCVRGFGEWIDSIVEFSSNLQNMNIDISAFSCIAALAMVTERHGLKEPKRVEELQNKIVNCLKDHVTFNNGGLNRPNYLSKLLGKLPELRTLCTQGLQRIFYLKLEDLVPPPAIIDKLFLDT

## CCN1CCN(c2cc(N3CCN(CC)CC3)nc(NCCNc3ccnc4cc(Cl)ccc34)n2)CC1 [4A7C-301, N^1-(4,6-bis(4-ethylpiperazin-1-yl)pyrimidin-2-yl)-N^2-(7-chloroquinolin-4-yl)ethane-1,2-diamine]
[1]; 0.05 µM
  Interaction [HTRF]: 3265.9820 and 3537.6830 and 3401.8330
[1]; 0.1 µM
  Interaction [HTRF]: 3598.5100 and 3223.1060 and 3410.8080
[1]; 0.5 µM
  Interaction [HTRF]: 3591.7500 and 3214.1330 and 3402.9410
[1]; 1 µM
  Interaction [HTRF]: 2993.5610 and 3208.3240 and 3100.9430
[1]; 5 µM
  Interaction [HTRF]: 3661.8470 and 3369.4680 and 3515.6580
[1]; 10 µM
  Interaction [HTRF]: 3348.5030 and 3240.2560 and 3294.3790
[1]; 50 µM
  Interaction [HTRF]: 3293.1070 and 2930.3900 and 3111.7480
[1]; 100 µM
  Interaction [HTRF]: 3045.7890 and 3264.7900 and 3155.2890
[1]; 200 µM
  Interaction [HTRF]: 3424.3450 and 3220.2860 and 3322.3150
[1]
  IC50: 108 nM and 100 nM
[2]; αSynA53T-mice
  loss of TH+ and NeuN+ neurons and fibers (in words): significantly prevented
[2]
  loss of TH+ and NeuN+ neurons and TH+ fibers (in words): partially prevented
[3]
  olfaction, olfactory discrimination test (in words): significantly restored
[3]; [5]
  Velocity: 4.45 cm/s and 5.11 cm/s and 5.02 cm/s and 4.95 cm/s and 5.52 cm/s and 4.32 cm/s and 6.05 cm/s and 4.65 cm/s and 4.59 cm/s
[3]; Figure 4e, New bedding, MPTP-induced mice, individual animal values
  Duration to stay (sec), New bedding: 163.9 s and 142.98 s and 108.88 s and 102.84 s and 124.52 s and 121.25 s and 140.21 s and 123.92 s and 115.28 s
[3]; Figure 4e, Old bedding, MPTP-induced mice, individual animal values
  Duration to stay (sec), Old bedding: 181.18 s and 132.3 s and 153.69 s and 187.59 s and 195.2 s and 172.27 s and 176.41 s and 155.62 s and 172.61 s
[4]; Fig. S5f/S5g, with 6-OHDA
  Relative mRNA levels (fold of Control), AADC: 1.28 fold of Control and 1.13 fold of Control and 1.203 fold of Control
  Relative mRNA levels (fold of Control), DAT: 1.197 fold of Control and 1.193 fold of Control and 1.282 fold of Control
  Relative mRNA levels (fold of Control), TH: 0.9704 fold of Control and 1 fold of Control and 1.046 fold of Control
  Relative mRNA levels (fold of Control), VMAT2: 0.9594 fold of Control and 0.8951 fold of Control and 0.9343 fold of Control
  Relative mRNA levels (fold of Control), c-Ret: 0.9509 fold of Control and 0.8338 fold of Control and 0.9285 fold of Control
[4]; Fig. S5f/S5g, without 6-OHDA
  Relative mRNA levels (fold of Control), AADC: 1.446 fold of Control and 1.683 fold of Control and 1.592 fold of Control
  Relative mRNA levels (fold of Control), DAT: 2.907 fold of Control and 2.949 fold of Control and 3.159 fold of Control
  Relative mRNA levels (fold of Control), TH: 2.273 fold of Control and 2.094 fold of Control and 2.264 fold of Control
  Relative mRNA levels (fold of Control), VMAT2: 1.573 fold of Control and 1.37 fold of Control and 1.5834 fold of Control
  Relative mRNA levels (fold of Control), c-Ret: 1.652 fold of Control and 1.7584 fold of Control and 1.7573 fold of Control
[4]; Fig. S5h/S5i, with 6-OHDA
  Relative mRNA levels (fold of Control), AADC: 0.268 fold of Control and 0.3023 fold of Control and 0.2821 fold of Control
  Relative mRNA levels (fold of Control), DAT: 0.1919 fold of Control and 0.1982 fold of Control and 0.2381 fold of Control
  Relative mRNA levels (fold of Control), TH: 0.3682 fold of Control and 0.3362 fold of Control and 0.3267 fold of Control
  Relative mRNA levels (fold of Control), VMAT2: 0.2168 fold of Control and 0.2497 fold of Control and 0.2445 fold of Control
  Relative mRNA levels (fold of Control), c-Ret: 0.2351 fold of Control and 0.2454 fold of Control and 0.2588 fold of Control
[4]; Fig. S5h/S5i, without 6-OHDA
  Relative mRNA levels (fold of Control), AADC: 0.385 fold of Control and 0.3813 fold of Control and 0.3915 fold of Control
  Relative mRNA levels (fold of Control), DAT: 0.3184 fold of Control and 0.317 fold of Control and 0.3059 fold of Control
  Relative mRNA levels (fold of Control), TH: 0.5668 fold of Control and 0.4913 fold of Control and 0.5193 fold of Control
  Relative mRNA levels (fold of Control), VMAT2: 0.4847 fold of Control and 0.4471 fold of Control and 0.4495 fold of Control
  Relative mRNA levels (fold of Control), c-Ret: 0.4648 fold of Control and 0.44 fold of Control and 0.4811 fold of Control
[4]
  dopaminergic gene expression (in words): significantly rescued

## CCN(CC)CCCC(C)Nc1ccnc2cc(Cl)ccc12 (stereo not drawn) [CQ, chloroquine]
[1]; 0.05 µM
  Interaction [HTRF]: 3273.3930 and 3465.5840 and 3369.4880
[1]; 0.1 µM
  Interaction [HTRF]: 3399.0860 and 3151.8330 and 3275.4590
[1]; 0.5 µM
  Interaction [HTRF]: 3111.7350 and 2901.1980 and 3006.4660
[1]; 1 µM
  Interaction [HTRF]: 2895.7250 and 2781.2580 and 2838.4910
[1]; 5 µM
  Interaction [HTRF]: 2113.6450 and 1994.2770 and 2053.9610
[1]; 10 µM
  Interaction [HTRF]: 1574.8930 and 1346.8690 and 1460.8810
[1]; 50 µM
  Interaction [HTRF]: 1485.2580 and 1344.1380 and 1414.6980
[1]; 100 µM
  Interaction [HTRF]: 1202.4890 and 1355.5820 and 1279.0350
[1]; 200 µM
  Interaction [HTRF]: 1193.4910 and 1136.9480 and 1165.2200
[1]
  IC50: 2330 nM and 2000 nM
[2]
  loss of TH+ and NeuN+ neurons and TH+ fibers (in words): partially prevented
[3]
  olfaction, olfactory discrimination test (in words): significantly restored
[3]; [5]
  Velocity: 3.95 cm/s and 4.45 cm/s and 4.51 cm/s and 5.91 cm/s and 5.61 cm/s and 5.73 cm/s and 4.26 cm/s and 5.02 cm/s and 3.4 cm/s and 5.27 cm/s and 6.07 cm/s
[4]
  dopaminergic gene expression (in words): significantly rescued
